Test results from PubChem BioAssay AID1963439 (Molecular Pharmacology Branch, DTP, NCI, 2024).
“And” between values parts separate entries of the source, which are not always exact repeats. Equal entries are not always repeated.

Test system: NCI-H196 complex spheroids with HUVEC/MSC, growth % T/C
Assay: Anticancer human tumor NCI-H196 cell line growth inhibition [Asc];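 further: spheroids exposed to compound for 7 days before measurement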;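 on viability, T/C: 100% = DMSO vehicle control wells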
Settings: for viability, T/C: stronger effect = lower value
How it was run: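 Complex spheroids combining tumor cells with HUVEC endothelial cells and human MSCs, at 37 degrees C, 5% CO2; agents tested alone or combined, half-log dilutions from at or near clinical Cmax, or 10 microM if Cmax unknown.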

C=C(F)C(=O)N1CCN(c2nc(OCC3CCCN3C)nc3c2CCN(c2cccc4cccc(Cl)c24)C3)CC1CC#N (configuration not stated) + CNC(C)C(=O)NC1CN(S(=O)(=O)c2cccc(S(=O)(=O)N3CCC4CCC(C(=O)NC(c5ccccc5)c5ccccc5)N4C(=O)C(NC(=O)C(C)NC)C3)c2)CCC2CCC(C(=O)NC(c3ccccc3)c3ccccc3)N2C1=O gave an IC50 (curve of first compound, second compound 0.01 µM) of under 0.0316 µM, an IC50 (curve of first compound, second compound 0.0316 µM) of under 0.0316 µM and an IC50 (curve of first compound, second compound 0.1 µM) of under 0.0316 µM. The IC50 (curve of first compound, second compound 0.316 µM) was under 0.0316 µM, the IC50 (curve of first compound, second compound 1 µM) was under 0.0316 µM and the viability, T/C (second compound 0.01 µM, first compound 0.0316 µM) was 7.36%. The viability, T/C (second compound 0.01 µM, first compound 0.1 µM) was 8.05%, the viability, T/C (second compound 0.01 µM, first compound 0.316 µM) was 5.8% and the viability, T/C (second compound 0.01 µM, first compound 1 µM) was 3.58%. For the same compound, the viability, T/C (second compound 0.01 µM, first compound 3.16 µM) was 0.83%, the viability, T/C (second compound 0.01 µM, first compound 10 µM) was 0.19% and the viability, T/C (second compound 0.0316 µM, first compound 0.0316 µM) was 3.17%. For the same compound, the viability, T/C (second compound 0.0316 µM, first compound 0.1 µM) was 4.55%, the viability, T/C (second compound 0.0316 µM, first compound 0.316 µM) was 4.1% and the viability, T/C (second compound 0.0316 µM, first compound 1 µM) was 3.88%. For the same compound, the viability, T/C (second compound 0.0316 µM, first compound 3.16 µM) was 0.38%, the viability, T/C (second compound 0.0316 µM, first compound 10 µM) was 0.16% and the viability, T/C (second compound 0.1 µM, first compound 0.0316 µM) was 4.2%. For the same compound, the viability, T/C (second compound 0.1 µM, first compound 0.1 µM) was 5.22%, the viability, T/C (second compound 0.1 µM, first compound 0.316 µM) was 5.23% and the viability, T/C (second compound 0.1 µM, first compound 1 µM) was 3.23%. It also gave a viability, T/C (second compound 0.1 µM, first compound 3.16 µM) of 0.27%, a viability, T/C (second compound 0.1 µM, first compound 10 µM) of 0.18% and a viability, T/C (second compound 0.316 µM, first compound 0.0316 µM) of 4.24%. The viability, T/C (second compound 0.316 µM, first compound 0.1 µM) was 3.28%, the viability, T/C (second compound 0.316 µM, first compound 0.316 µM) was 1.71% and the viability, T/C (second compound 0.316 µM, first compound 1 µM) was 2.27%. For the same compound, the viability, T/C (second compound 0.316 µM, first compound 3.16 µM) was 2.27%, the viability, T/C (second compound 0.316 µM, first compound 10 µM) was 0.18% and the viability, T/C (second compound 1 µM, first compound 0.0316 µM) was 3.34%. It also gave a viability, T/C (second compound 1 µM, first compound 0.1 µM) of 3.4%, a viability, T/C (second compound 1 µM, first compound 0.316 µM) of 2.52% and a viability, T/C (second compound 1 µM, first compound 1 µM) of 1.53%. The viability, T/C (second compound 1 µM, first compound 3.16 µM) was 0.35% and the viability, T/C (second compound 1 µM, first compound 10 µM) was 0.24%.

For COc1c(OCCCN2CCOCC2)ccc2c3n(c(=NC(=O)c4cnc(N)nc4)nc12)CCN3, the viability, T/C (compound 0.00316 µM) was 96% and 93% and 109%, the viability, T/C (compound 0.01 µM) was 91.4% and 90.6% and 101% and the viability, T/C (compound 0.0316 µM) was 94.1% and 100% and 108%. For the same compound, the viability, T/C (compound 0.1 µM) was 77.4% and 86.4% and 90.1%, the viability, T/C (compound 0.316 µM) was 67.9% and 69.6% and 69.5% and the viability, T/C (compound 1 µM) was 56.8% and 50.8% and 51%. The IC50 (curve of compound) was over 1 µM.

With O=C(c1ccc(F)c(F)c1Nc1ccc(I)cc1F)N1CC(O)([C@@H]2CCCCN2)C1 + CCN1C(C(=O)NC23CCC(C(=O)O)(CC2)CC3)C(c2cccc(Cl)c2F)C2(C(=O)Nc3cc(Cl)ccc32)C12CCCCC2 the IC50 (curve of first compound, second compound 0.03 µM) was over 1 µM, the IC50 (curve of first compound, second compound 0.0949 µM) was over 1 µM and the IC50 (curve of first compound, second compound 0.3 µM) was over 1 µM. It also gave an IC50 (curve of first compound, second compound 0.949 µM) of over 1 µM, an IC50 (curve of first compound, second compound 3 µM) of over 1 µM and a viability, T/C (second compound 0.03 µM, first compound 0.00316 µM) of 107%. The viability, T/C (second compound 0.03 µM, first compound 0.01 µM) was 110%, the viability, T/C (second compound 0.03 µM, first compound 0.0316 µM) was 101% and the viability, T/C (second compound 0.03 µM, first compound 0.1 µM) was 111%. It also gave a viability, T/C (second compound 0.03 µM, first compound 0.316 µM) of 123%, a viability, T/C (second compound 0.03 µM, first compound 1 µM) of 157% and a viability, T/C (second compound 0.0949 µM, first compound 0.00316 µM) of 105%. It also gave a viability, T/C (second compound 0.0949 µM, first compound 0.01 µM) of 121%, a viability, T/C (second compound 0.0949 µM, first compound 0.0316 µM) of 108% and a viability, T/C (second compound 0.0949 µM, first compound 0.1 µM) of 112%. It also gave a viability, T/C (second compound 0.0949 µM, first compound 0.316 µM) of 127%, a viability, T/C (second compound 0.0949 µM, first compound 1 µM) of 131% and a viability, T/C (second compound 0.3 µM, first compound 0.00316 µM) of 104%. For the same compound, the viability, T/C (second compound 0.3 µM, first compound 0.01 µM) was 114%, the viability, T/C (second compound 0.3 µM, first compound 0.0316 µM) was 123% and the viability, T/C (second compound 0.3 µM, first compound 0.1 µM) was 115%. It also gave a viability, T/C (second compound 0.3 µM, first compound 0.316 µM) of 125%, a viability, T/C (second compound 0.3 µM, first compound 1 µM) of 122% and a viability, T/C (second compound 0.949 µM, first compound 0.00316 µM) of 115%. For the same compound, the viability, T/C (second compound 0.949 µM, first compound 0.01 µM) was 120%, the viability, T/C (second compound 0.949 µM, first compound 0.0316 µM) was 125% and the viability, T/C (second compound 0.949 µM, first compound 0.1 µM) was 120%. For the same compound, the viability, T/C (second compound 0.949 µM, first compound 0.316 µM) was 145%, the viability, T/C (second compound 0.949 µM, first compound 1 µM) was 144% and the viability, T/C (second compound 3 µM, first compound 0.00316 µM) was 124%. The viability, T/C (second compound 3 µM, first compound 0.01 µM) was 123%, the viability, T/C (second compound 3 µM, first compound 0.0316 µM) was 126% and the viability, T/C (second compound 3 µM, first compound 0.1 µM) was 121%. It also gave a viability, T/C (second compound 3 µM, first compound 0.316 µM) of 136% and a viability, T/C (second compound 3 µM, first compound 1 µM) of 154%.
